These are literature values, as cited in US20090054334A1, “Combinatorial improvement of bifunctional drug properties” (priority 2007, published 2009).

For data set [1] the following is noted: in vivo.
For data set [2] the following is noted: in vivo. The source holds these as a separate data set.

For `C=CC[C@@H]1/C=C(\C)C[C@H](C)C[C@H](OC)[C@H]2O[C@@](O)(C(=O)C(=O)N3CCCC[C@H]3C(=O)O[C@H](/C(C)=C/[C@@H]3CC[C@@H](O)[C@H](OC)C3)[C@H](C)[C@@H](O)CC1=O)[C@H](C)C[C@@H]2OC` [FK506], the “distribution into protected cellular compartments, in the blood” value in data set [1] is 72-98%. In data set [2], the bioavailability (usually the share of a dose that reaches the circulation, judged against a reference dose that is usually intravenous) was 20% and the half life was 11.3 h.

Turning to `CCC(C)(C)C(=O)C(=O)N1CCC[C@H]1C(=O)O` [GPI-1485], in data set [2], the bioavailability was 50% and the blood-brain barrier crossing result is listed as “crosses the blood-brain barrier”.
